In ChEMBL document CHEMBL1136399, “Anti-AIDS agents 54. A potent anti-HIV chalcone and flavonoids from genus Desmos” (Bioorg Med Chem Lett, 2003) one finds IC50, EC50 and selectivity ratio data, which are given here for 17 compounds.

Data set [1] deals with H9. Put plainly: Concentration that inhibits uninfected H9 cell growth by 50%. It counts as functional, cell-based. Conditions: Homo sapiens; call rule not given here.
Data set [2] has as its system H9. Description: Effective concentration against HIV-1 replication in H9 lymphocytic cells; No suppression. It counts as functional, cell-based, Homo sapiens.
In data set [3] the test system is H9. Put plainly: Concentration that inhibits uninfected H9 cell growth by 50%.; Not dissolved. It is filed as functional, cell-based, Homo sapiens.
Data set [4] in a line: Therapeutic index determined by ratio of IC50 to EC50. As to conditions: read-out: Therapeutic index.
The test system of data set [5] is H9. Description: Effective concentration against HIV-1 replication in H9 lymphocytic cells. It counts as functional, cell-based. As to conditions: Homo sapiens.
The subject of data set [6] is H9. Put plainly: Concentration that inhibits uninfected H9 cell growth by 50%.; Did not dissolve. It counts as functional, cell-based, Homo sapiens.

Structures are written as SMILES. Values after ≈ are worked out from the molar mass of the structure shown.

In data set [1], `COc1cc2oc(-c3ccccc3)cc(=O)c2c(O)c1O` yielded an IC50 of 11.5 µg/mL (≈ 40.5 µM). In addition, the concentration for a half-maximal effect (EC50) result in data set [2] is listed as “Not Active”.
The corresponding values for `CC1=C(O)C(C)(C)C2=C(C(=O)C[C@@H](c3ccccc3)O2)C1=O` are 1.89 µg/mL (≈ 6.34 µM) and “Not Active”.
Consider `Cc1c(O)c(C=O)c2oc(-c3ccccc3)cc(=O)c2c1O`, for which the IC50 entry in data set [3] is recorded as “Insoluble”.
As for `COc1c(C)c(O)c(/C(O)=C/C(=O)c2ccccc2)c(O)c1C=O`, the selectivity ratio in data set [4] came out at 489. In data set [5], this compound gave an EC50 of 0.022 µg/mL (≈ 0.067 µM). The same compound showed an IC50 in data set [1] of 10.7 µg/mL (≈ 32.6 µM).
`Cc1c(O)c(C=O)c(O)c2c(=O)cc(-c3ccccc3)oc12`: the IC50 result in data set [6] was “Insoluble”.
In data set [1], `COc1c(C)c(O)c(C=O)c2c1C(O)C[C@@H](c1ccccc1)O2` (stereo not given in full) had an IC50 of 24.2 µg/mL (≈ 77 µM). Besides, the EC50 result in data set [2] is listed as “Not Active”.
For `COc1c(C)c(O)c2c(=O)cc(-c3ccccc3)oc2c1C`, in that order: 19.8 µg/mL (≈ 66.8 µM) and “Not Active”.
Compound `COc1c(C)c(O)c2c(c1C)O[C@H](c1ccccc1)CC2=O` registered a concentration for half-maximal inhibition (IC50) in data set [1] of 1.77 µg/mL (≈ 5.93 µM). Further, the EC50 entry in data set [2] is “Not Active”.
On to `Cc1c(O)c(C=O)c(O)c(/C(O)=C/C(=O)c2ccccc2)c1O`, for which the IC50 in data set [1] was found to be 18.8 µg/mL (≈ 59.8 µM). The EC50 entry in data set [2] was “Not Active”.
For `Cc1c(O)c(C=O)c2c(c1O)C(=O)C[C@@H](c1ccccc1)O2`, in that order: 2.15 µg/mL (≈ 7.21 µM) and “Not Active”.
As for `Cc1c(O)c(C=O)c(O)c2c1O[C@H](c1ccccc1)CC2=O`, the selectivity ratio in data set [4] came out at 45.2. This compound also displayed an EC50 in data set [5] of 2.3 µg/mL (≈ 7.71 µM). Also, the IC50 in data set [1] stood at 104 µg/mL (≈ 349 µM).
For `COc1c(C)c(O)c2c(c1C=O)O[C@@H](C)[C@H](C(=O)c1ccccc1)C2=O`, in data set [1], inhibition was half-maximal at 18.9 µg/mL (≈ 53.3 µM) (IC50). Besides, the EC50 result in data set [2] was “Not Active”.
`COc1c(C)c(O)c(C=O)c2c1C(=O)C[C@@H](c1ccccc1)O2`: the selectivity ratio in data set [4] was 9.85. In data set [5], this compound came in with an EC50 of 11 µg/mL (≈ 35.2 µM). Also, inhibition in data set [1] was half-maximal at 108 µg/mL (≈ 346 µM) (IC50).
For `Cc1c(O)c(C)c2c(c1O)C(=O)C[C@@H](c1ccccc1)O2` [DEMETHOXYMATTEUCINOL], in that order: 4.18, 4.97 µg/mL (≈ 17.5 µM) and 20.8 µg/mL (≈ 73.2 µM).
Compound `COC1=C(C)C(O)=C(C(=O)/C=C/c2ccccc2)C(=O)C1(C)C` [DESMOSDUMOTIN C] had an IC50 in data set [1] of 2.29 µg/mL (≈ 7.33 µM). In data set [2], the EC50 result is “Not Active”.
Take `COc1cc2oc(-c3ccccc3)cc(=O)c2c(O)c1OC` [MOSLOFLAVONE]: 20.2 µg/mL (≈ 67.7 µM) corresponded to half-maximal inhibition in data set [1] (IC50). Further, the EC50 result in data set [2] is reported as “Not Active”.
`Cc1cn([C@H]2C[C@H](N=[N+]=[N-])[C@@H](CO)O2)c(=O)[nH]c1=O` [ZIDOVUDINE] returned an EC50 in data set [5] of 0.0221 µg/mL (≈ 0.0827 µM).
